The source of these data is the supplement of paper PMC11208160.
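Note: IS621 recombinase and bridge RNA in Escherichia coli cells.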

A short description of this series: recombinant barcode read abundance after kanamycin selection (control-corrected) (log10(CPM+1)); higher = more efficient recombination; sequences stand for … in AGTGCAGAGAAAATCGGCCAGTTTTCTCTGCCTGCAGTCCGCATGCCGT…AGATTTATGCAGCGGACTGCCTTTCTCCCAAAGTGATAAACCGGACAGTATCATGGACCGGTTTTCCCGGTAATCCGTATTTGCAAGGTTGGTTTCACT; site = the 11-nt target. Summed up: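 In a pooled screen in E. coli, targets were paired with target-binding loops of the IS621 bridge RNA. Each oligo carried a promoter, a target, a barcode and the first 104 bridge RNA bases driven by J23119, and was Gibson-cloned into a vector holding the remaining 73 bp and a T7-inducible recombinase before co-electroporation with a donor plasmid. Duplicate platings went onto chloramphenicol/ampicillin LB agar as the control or onto chloramphenicol/ampicillin/kanamycin with 0.1 mM IPTG. Recombination efficiency is the averaged, control-corrected count per million of barcodes at recombinant junctions, given as log10(CPM+1).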
“GAGGGCCCTTGGGTTCTAACCTGTTGCAG (site GAGGGCCCTCG)”: the “recombinant barcode read abundance (log10)” value was determined as 1.4.

On to “GAGGGCCCTTGGGTTCTAACCTGTTGCAG (site GAGGGCCCTCT)”, for which the “recombinant barcode read abundance (log10)” value came to 2.88.

For the sequence “GAGGGCCCTTGGGTTCTAACCTGTTGCCT (site AAGGGCCCTAG)”, the “recombinant barcode read abundance (log10)” value is 1.38.

Regarding “GAGGGCCCTTGGGTTCTAACCTGTTGCCT (site CAGGGCCCTAG)”, the “recombinant barcode read abundance (log10)” value amounted to 1.04.

With “GAGGGCCCTTGGGTTCTAACCTGTTGCCT (site GAGGGCCCTAG)”, the “recombinant barcode read abundance (log10)” value is 2.41.

For “GAGGGCCCTTGGGTTCTAACCTGTTGCCT (site TAGGGCCCTAG)”, the “recombinant barcode read abundance (log10)” value is 1.04.

For the sequence “GAGGGTCCTTGGGTTCTAACCTGTTGCCT (site GAGGGTCCTAA)”, the “recombinant barcode read abundance (log10)” value was 0.451.

“GAGGGTCCTTGGGTTCTAACCTGTTGCCT (site GAGGGTCCTAC)”: the “recombinant barcode read abundance (log10)” value was 0.133.

Turning to “GAGGGTCCTTGGGTTCTAACCTGTTGCCT (site GAGGGTCCTAG)”, the “recombinant barcode read abundance (log10)” value amounted to 2.56.

For “GAGGGTCCTTGGGTTCTAACCTGTTGCCT (site GAGGGTCCTAT)”, the “recombinant barcode read abundance (log10)” value was determined as 0.457.

For “GAGGGTCCTTGGGTTCTAACCTGTTGCTT (site GAGGGTCCTAA)”, the “recombinant barcode read abundance (log10)” value was determined as 2.

As to “GAGGGTCCTTGGGTTCTAACCTGTTGCTT (site GAGGGTCCTAC)”, the “recombinant barcode read abundance (log10)” value came out at 0.598.

“GAGGGTCCTTGGGTTCTAACCTGTTGCTT (site GAGGGTCCTAG)”: the “recombinant barcode read abundance (log10)” value is 1.72.

On to “GAGGGTCCTTGGGTTCTAACCTGTTGCTT (site GAGGGTCCTAT)”, for which the “recombinant barcode read abundance (log10)” value was 1.83.

As to “GAGGGTGCTTGGGTTCTAACCTGTTGCCT (site GAGGGTGCTAG)”, the “recombinant barcode read abundance (log10)” value was 1.89.

Consider “GAGGGTGCTTGGGTTCTAACCTGTTGCCT (site GAGGGTTCTAT)”, for which the “recombinant barcode read abundance (log10)” value stood at 0.121.

Consider “GAGGTATCTTGGGTTCTAACCTGTTGCCA (site GAGGTATCTAC)”, for which the “recombinant barcode read abundance (log10)” value worked out at 0.038.

Regarding “GAGGTATCTTGGGTTCTAACCTGTTGCCA (site GAGGTATCTTG)”, the “recombinant barcode read abundance (log10)” value came out at 1.12.

Regarding “GAGGTATCTTGGGTTCTAACCTGTTGCTA (site GAGGTATCTAA)”, the “recombinant barcode read abundance (log10)” value is 0.201.

For “GAGGTATCTTGGGTTCTAACCTGTTGCTA (site GAGGTATCTTA)”, the “recombinant barcode read abundance (log10)” value is 0.345.

With “GAGGTGCCTTGGGTTCTAACCTGTTGCTG (site CTAACTACTAC)”, the “recombinant barcode read abundance (log10)” value worked out at 0.0482.

For “GAGGTGCCTTGGGTTCTAACCTGTTGCTG (site GAGGTGCCTCA)”, the “recombinant barcode read abundance (log10)” value stood at 2.

Take “GAGTCGCCTTGGGTTCTAACCTGTTGCCT (site GAGTCGCCTAG)”: the “recombinant barcode read abundance (log10)” value is 0.263.

Take “GAGTCGCCTTGGGTTCTAACCTGTTGCCT (site GAGTCGTCTAG)”: the “recombinant barcode read abundance (log10)” value came out at 0.118.

Regarding “GAGTCGCCTTGGGTTCTAACCTGTTGCGG (site GAGTAGCCTCC)”, the “recombinant barcode read abundance (log10)” value stood at 0.0862.

For “GAGTCGCCTTGGGTTCTAACCTGTTGCGG (site GAGTCGCCTCC)”, the “recombinant barcode read abundance (log10)” value is 1.22.

Turning to “GAGTCGCCTTGGGTTCTAACCTGTTGCGG (site GAGTGGCCTCC)”, the “recombinant barcode read abundance (log10)” value came to 0.188.

As to “GAGTCGCCTTGGGTTCTAACCTGTTGCGG (site GAGTTGCCTCC)”, the “recombinant barcode read abundance (log10)” value was found to be 0.0886.

On to “GAGTCGGCTTGGGTTCTAACCTGTTGCTT (site GAGACGGCTAA)”, for which the “recombinant barcode read abundance (log10)” value came out at 0.23.

As for “GAGTCGGCTTGGGTTCTAACCTGTTGCTT (site GAGCCGGCTAA)”, the “recombinant barcode read abundance (log10)” value worked out at 0.

As for “GAGTCGGCTTGGGTTCTAACCTGTTGCTT (site GAGGCGGCTAA)”, the “recombinant barcode read abundance (log10)” value amounted to 0.0495.

Take “GAGTCGGCTTGGGTTCTAACCTGTTGCTT (site GAGTCGGCTAA)”: the “recombinant barcode read abundance (log10)” value amounted to 0.778.

With “GAGTCTACTTGGGTTCTAACCTGTTGCAG (site GAGTCTACTCG)”, the “recombinant barcode read abundance (log10)” value stood at 0.339.

For “GAGTCTACTTGGGTTCTAACCTGTTGCAG (site GAGTCTACTCT)”, the “recombinant barcode read abundance (log10)” value was determined as 0.494.

In the case of “GAGTCTACTTGGGTTCTAACCTGTTGCTT (site GAATCTACTAA)”, the “recombinant barcode read abundance (log10)” value was determined as 0.0356.

As for “GAGTCTACTTGGGTTCTAACCTGTTGCTT (site GACTCTACTAA)”, the “recombinant barcode read abundance (log10)” value is 0.813.

As for “GAGTCTACTTGGGTTCTAACCTGTTGCTT (site GAGTCTACTAA)”, the “recombinant barcode read abundance (log10)” value turned out to be 0.

For the sequence “GAGTCTACTTGGGTTCTAACCTGTTGCTT (site GATTCTACTAA)”, the “recombinant barcode read abundance (log10)” value is 0.0603.

In the case of “GAGTCTTCTTGGGTTCTAACCTGTTGCCA (site CTACAGGCTGT)”, the “recombinant barcode read abundance (log10)” value came to 0.281.

With “GAGTCTTCTTGGGTTCTAACCTGTTGCCA (site GAGTCTTCTTG)”, the “recombinant barcode read abundance (log10)” value came to 0.147.

As for “GAGTCTTCTTGGGTTCTAACCTGTTGCTA (site GAGTACTCTTA)”, the “recombinant barcode read abundance (log10)” value is 0.0434.

In the case of “GAGTCTTCTTGGGTTCTAACCTGTTGCTA (site GAGTCTTCTTA)”, the “recombinant barcode read abundance (log10)” value was determined as 0.0462.

Regarding “GAGTGCTCTTGGGTTCTAACCTGTTGCAG (site GAGCGCTCTCT)”, the “recombinant barcode read abundance (log10)” value was 0.676.

For the sequence “GAGTGCTCTTGGGTTCTAACCTGTTGCAG (site GAGTGCTCTCT)”, the “recombinant barcode read abundance (log10)” value turned out to be 1.26.

With “GAGTGGACTTGGGTTCTAACCTGTTGCGT (site GACCGGACTAC)”, the “recombinant barcode read abundance (log10)” value stood at 0.349.

For “GAGTGGACTTGGGTTCTAACCTGTTGCGT (site GAGTGGACTAC)”, the “recombinant barcode read abundance (log10)” value was 2.7.

For the sequence “GAGTGTCCTTGGGTTCTAACCTGTTGCGA (site GAGTGTCCTTC)”, the “recombinant barcode read abundance (log10)” value worked out at 1.87.

As to “GAGTGTCCTTGGGTTCTAACCTGTTGCGA (site GTGTCTCCTTC)”, the “recombinant barcode read abundance (log10)” value was determined as 0.0874.

Take “GAGTTCACTTGGGTTCTAACCTGTTGCAG (site AGTCGTTCTAG)”: the “recombinant barcode read abundance (log10)” value was determined as 0.141.

Regarding “GAGTTCACTTGGGTTCTAACCTGTTGCAG (site GAGTTCACTCT)”, the “recombinant barcode read abundance (log10)” value was determined as 1.79.

For “GAGTTGCCTTGGGTTCTAACCTGTTGCCT (site GAGTTGCCTAG)”, the “recombinant barcode read abundance (log10)” value stood at 1.05.

With “GAGTTGCCTTGGGTTCTAACCTGTTGCCT (site GCGTTGCCTAG)”, the “recombinant barcode read abundance (log10)” value was found to be 0.107.

Take “GAGTTGCCTTGGGTTCTAACCTGTTGCCT (site GGGTTGCCTAG)”: the “recombinant barcode read abundance (log10)” value is 0.0448.

In the case of “GAGTTGCCTTGGGTTCTAACCTGTTGCCT (site GTGTTGCCTAG)”, the “recombinant barcode read abundance (log10)” value came to 1.59.

On to “GAGTTGCCTTGGGTTCTAACCTGTTGCGG (site GAGTAGCCTCC)”, for which the “recombinant barcode read abundance (log10)” value turned out to be 0.0344.

Take “GAGTTGCCTTGGGTTCTAACCTGTTGCGG (site GAGTCGCCTCC)”: the “recombinant barcode read abundance (log10)” value came out at 0.25.

Take “GAGTTGCCTTGGGTTCTAACCTGTTGCGG (site GAGTGGCCTCC)”: the “recombinant barcode read abundance (log10)” value was 0.101.

On to “GAGTTGCCTTGGGTTCTAACCTGTTGCGG (site GAGTTGCCTCC)”, for which the “recombinant barcode read abundance (log10)” value stood at 2.32.

As for “GAGTTTGCTTGGGTTCTAACCTGTTGCCT (site GAGTTTGCTAG)”, the “recombinant barcode read abundance (log10)” value amounted to 0.572.
